From US20180265487A1, “SWEET TASTE MODULATORS” (Altria Client Services LLC, priority 2017, published 2018)

Test system: sweet taste perception
Experiment: time-intensity test of sweet taste (12 panelists, sample vs reference solution of 2 vol % sucrose, 1 vol % ethanol)
Assay type: in vivo, human
Conditions: for concentration at which perceived intensity and duration of sweet taste perception are increased: in 2 vol % sucrose
Excerpt: The influence of the sweet taste modulators on the temporal perception of sweetness can be shown by means of time-intensity tests. For time-intensity tests, a reference solution containing 2 vol % sucrose and 1 vol % ethanol in water and sample solutions (i.e., concentration of stock aqueous solutions listed in Table 1 below) containing 2 vol % sucrose and 1 vol % ethanol and the test compound in different concentrations in water were rated on a horizontal, non-structured line scale from 0 (not detectable) to 10 (very strongly detectable). The reference solution served as a baseline for the time-intensity tests upon which the sample solutions were compared for the temporal perception of sweetness. Twelve panelists were asked to rinse their mouths with an aliquot (10 mL) of a solution and immediately start rating solution's sweet taste intensity for a period of 5 seconds. […] The rating results were the averages from the twelve panelists.
FIGS. 7A and 7B illustrate empirical (FIG. 7A) and predictive (FIG. 7B) model time-intensity experiments using the reference solution containing 2 vol % sucrose and 1 vol % ethanol in water and a sample solution containing 50 μM EMF, 2 vol % sucrose and 1 vol % ethanol in water. Time intensity tests enable continuous measurement of the intensity of taste impressions.
After calculating average time intensity (TI) curves using FIZZ biosystems calculations software and determining the TI curves integrated value (i.e., area under the curve), duration, and duration of the increasing and decreasing phase from individual TI curves, the trapezoidal method was applied after extraction of data points at 5% and 95% of the respective maximum intensity on the increasing and decreasing sections of the individual TI curves. The following parameters were extracted for further data analysis: maximum intensity (Imax) of taste perception experienced, total area under the curve (Atotal) 1 (i.e., total amount) of taste perception experienced and total duration (Dtotal) of taste perception experienced. Extracted parameters of sample solutions were normalized on the reference solution from the same evaluation session and a two-way analysis of variance (ANOVA) was conducted.
Table 2 below illustrates an overview of all p-values generated by two-way ANOVA of maximum intensity (Imax), total area under the curve (Atotal) land total duration (Dtotal) for sample solutions containing 5-ethyoxymethylfurfural (EMF), as well as ester of 5-hydroxymethylfurfural and vanillic acid (VanMF), 4-hydrozybenzaldehyde (pHBA), syringic aldehyde (SyA), and sinapic aldehyde (SinA), respectively. P-values (i.e., calculated probabilities) are statistical measures ranging from 0 to 1 which quantify the statistical significance of a data set. In other words, the p-value is a function of the observed sample results (a test statistic) relative to a statistical model, which measures how extreme the observation is. Smaller p-values are indicative of scaling significance. For example, p <0.05 are “significant” (*) (i.e., less than 1 in 20 chance, or 5%, of the data set being erroneous or inaccurate); p <0.01 are “highly significant” (**) (i.e., less than 1 in 100 chance, or 1%, of the data set being erroneous or inaccurate); and, p <0.001 are “very highly significant” (***) (less than 1 in 1000 chance, or 0.1%, of the data set being erroneous or inaccurate). Measured concentrations of EMF, VanMF, pHBA, SyA, and SinA in the sample solutions used in the statistical analysis are 10 μmol/L, 25 μmol/L, and 50 μmol/L, respectively. The p-values in Table 2 below relate to the statistical significance of the Imax, Atotal, and Dtotal values of sample solutions containing EMF, VanMF, pHBA, SyA, and SinA, respectively, in FIGS. 8-12.

| SMILES | increase of Atotal vs reference solution (significance) (10 μM) | increase of Dtotal vs reference solution (significance) (10 μM) | increase of Imax vs reference solution (significance) (10 μM) | increase of Atotal vs reference solution (significance) (25 μM) | increase of Dtotal vs reference solution (significance) (25 μM) | increase of Imax vs reference solution (significance) (25 μM) | increase of Atotal vs reference solution (significance) (50 μM) | increase of Dtotal vs reference solution (significance) (50 μM) | increase of Imax vs reference solution (significance) (50 μM) | total area under the curve (Atotal) compared with reference solution (50 μM in 2 vol % sucrose, 1 vol % ethanol) | maximum intensity (Imax) of sweet taste perception on the intensity scale (50 μM in 2 vol % sucrose, 1 vol % ethanol, scale 0 to 10, reference solution about 3.5) | concentration at which perceived intensity and duration of sweet taste perception are increased (1 vol % ethanol) |
| --- | --- | --- | --- | --- | --- | --- | --- | --- | --- | --- | --- | --- |
| CCOCc1ccc(C=O)o1 [EMF, 5-ethoxymethyl-2-furaldehyde] | no significant increases | no significant increases | no significant increases | no significant increases | no significant increases | very highly significant increase | *** (p <0.001 are “very highly significant” (***)) | *** (p <0.001 are “very highly significant” (***)) | *** (p <0.001 are “very highly significant” (***)) | greater than Atotal for the reference solution | ~5 | at least 50 μM |
| O=Cc1ccc(O)cc1 [pHBA, 4-hydrozybenzaldehyde] | No significant increases | No significant increases | No significant increases | ** (p <0.01 are “highly significant” (**)) |  | *** (p <0.001 are “very highly significant” (***)) | ** (p <0.01 are “highly significant” (**)) | ** (p <0.01 are “highly significant” (**)) | ** (p <0.01 are “highly significant” (**)) |  |  | 50 µM |
| COc1cc(C=O)cc(OC)c1O [SyA, syringic aldehyde] | do not have a significant influence | do not have a significant influence | do not have a significant influence | *** (p <0.001 are “very highly significant” (***)) | * (p <0.05 are “significant” (*)) | ** (p <0.01 are “highly significant” (**)) | ** (p <0.01 are “highly significant” (**)) |  | ** (p <0.01 are “highly significant” (**)) |  |  |  |
| COc1cc(C(=O)OCc2ccc(C=O)o2)ccc1O [VanMF, ester of 5-hydroxymethylfurfural and vanillic acid] | ** (p <0.01 are “highly significant” (**)) | ** (p <0.01 are “highly significant” (**)) | ** (p <0.01 are “highly significant” (**)) | * (p <0.05 are “significant” (*)) | * (p <0.05 are “significant” (*)) | ** (p <0.01 are “highly significant” (**)) | no significant increases | * (p <0.05 are “significant” (*)) | no significant increases |  |  |  |
| COc1cc(/C=C/C=O)cc(OC)c1O [SinA, sinapic aldehyde] | significant increases | no significant increase | significant increases | significant increases | significant increases | significant increases | significant increases | significant increases | significant increases |  |  |  |
